Measured values taken from patent US20240246942A1, “KINASE INHIBITORS FOR THE TREATMENT OF NEURODEGENERATIVE DISEASES” (priority 2020, published 2024).

Assays:
Experiment in all cases: biochemical
[1] = target: T1, panel of 374 wild-type kinases (Homo sapiens, UniProt P14616); conditions: read-out: % Enzyme Activity (relative to DMSO controls), IRR/INSRR
T1 construct: purchased Reaction Biology Corporation

[2] = target: T2, panel of 374 wild-type kinases (Homo sapiens, UniProt Q07912); conditions: read-out: % Enzyme Activity (relative to DMSO controls), ACK1
T2 construct: purchased Reaction Biology Corporation

[3] = target: T3, panel of 374 wild-type kinases (Homo sapiens, UniProt P41240); conditions: read-out: % Enzyme Activity (relative to DMSO controls), CSK
T3 construct: purchased Reaction Biology Corporation

[4] = target: T4, panel of 374 wild-type kinases (Homo sapiens, UniProt P49137); conditions: read-out: % Enzyme Activity (relative to DMSO controls), MAPKAPK2
T4 construct: purchased Reaction Biology Corporation

[5] = target: T5, panel of 374 wild-type kinases (Homo sapiens, UniProt O15264); conditions: read-out: % Enzyme Activity (relative to DMSO controls), kinase P38d/MAPK13
T5 construct: purchased Reaction Biology Corporation
T5 sequence (O15264 1-365): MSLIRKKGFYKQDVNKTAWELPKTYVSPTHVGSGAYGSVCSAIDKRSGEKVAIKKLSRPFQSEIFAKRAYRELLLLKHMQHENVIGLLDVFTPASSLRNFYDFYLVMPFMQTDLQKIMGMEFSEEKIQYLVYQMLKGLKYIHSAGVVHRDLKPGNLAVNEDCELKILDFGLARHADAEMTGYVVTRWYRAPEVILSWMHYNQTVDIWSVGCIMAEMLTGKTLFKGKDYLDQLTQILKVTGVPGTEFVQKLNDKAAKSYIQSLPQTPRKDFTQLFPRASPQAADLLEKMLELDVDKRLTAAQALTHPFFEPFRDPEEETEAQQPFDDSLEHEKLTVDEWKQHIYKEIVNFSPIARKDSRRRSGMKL

[6] = target: T6, panel of 374 wild-type kinases (Homo sapiens, UniProt Q9P286); conditions: read-out: % Enzyme Activity (relative to DMSO controls), kinase PAK5
T6 construct: purchased Reaction Biology Corporation

[7] = target: T7, panel of 374 wild-type kinases (Homo sapiens, UniProt Q9H1R3); conditions: read-out: % Enzyme Activity (relative to DMSO controls), MLCK2/MYLK2
T7 construct: purchased Reaction Biology Corporation

[8] = target: T8, panel of 374 wild-type kinases (Homo sapiens, UniProt Q9BWU1); conditions: read-out: % Enzyme Activity (relative to DMSO controls), CDK19/cyclin C
T8 construct: purchased Reaction Biology Corporation

[9] = target: T9, panel of 374 wild-type kinases (Homo sapiens, UniProt Q9NRM7); conditions: read-out: % Enzyme Activity (relative to DMSO controls), LATS2
T9 construct: purchased Reaction Biology Corporation
T9 sequence (Q9NRM7 1-1088): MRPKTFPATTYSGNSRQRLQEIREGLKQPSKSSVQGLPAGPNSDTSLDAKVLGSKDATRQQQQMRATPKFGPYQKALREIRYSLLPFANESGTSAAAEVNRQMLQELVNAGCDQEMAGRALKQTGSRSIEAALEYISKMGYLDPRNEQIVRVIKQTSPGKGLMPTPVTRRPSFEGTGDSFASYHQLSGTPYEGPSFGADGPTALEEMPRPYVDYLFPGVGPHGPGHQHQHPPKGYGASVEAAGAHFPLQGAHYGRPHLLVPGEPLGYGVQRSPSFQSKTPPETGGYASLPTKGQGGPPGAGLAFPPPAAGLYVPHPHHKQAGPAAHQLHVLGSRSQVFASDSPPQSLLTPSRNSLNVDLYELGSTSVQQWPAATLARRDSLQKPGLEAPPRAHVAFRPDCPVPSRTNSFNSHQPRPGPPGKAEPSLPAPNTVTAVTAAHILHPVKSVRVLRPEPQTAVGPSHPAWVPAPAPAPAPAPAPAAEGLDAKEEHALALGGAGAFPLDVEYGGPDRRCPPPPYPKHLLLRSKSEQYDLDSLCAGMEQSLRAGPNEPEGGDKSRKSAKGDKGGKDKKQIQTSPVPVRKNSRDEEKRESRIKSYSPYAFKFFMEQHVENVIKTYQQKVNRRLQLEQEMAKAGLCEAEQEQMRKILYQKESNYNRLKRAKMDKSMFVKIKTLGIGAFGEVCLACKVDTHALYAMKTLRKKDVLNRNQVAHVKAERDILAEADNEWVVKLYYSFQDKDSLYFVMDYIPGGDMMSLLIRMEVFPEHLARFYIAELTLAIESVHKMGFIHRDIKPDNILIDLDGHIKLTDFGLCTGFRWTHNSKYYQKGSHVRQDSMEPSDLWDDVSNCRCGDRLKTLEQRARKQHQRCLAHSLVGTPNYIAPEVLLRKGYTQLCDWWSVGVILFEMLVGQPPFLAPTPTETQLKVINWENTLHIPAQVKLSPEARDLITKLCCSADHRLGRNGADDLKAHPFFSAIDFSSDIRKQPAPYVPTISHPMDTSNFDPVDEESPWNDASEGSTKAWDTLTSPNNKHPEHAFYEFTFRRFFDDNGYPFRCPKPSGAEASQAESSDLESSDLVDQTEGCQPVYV

[10] = target: T10, panel of 374 wild-type kinases (Homo sapiens, UniProt Q9UQM7); conditions: read-out: % Enzyme Activity (relative to DMSO controls), CAMK2a
T10 construct: purchased Reaction Biology Corporation

[11] = target: T11, panel of 374 wild-type kinases (Homo sapiens, UniProt Q13555); conditions: read-out: % Enzyme Activity (relative to DMSO controls), CAMK2g
T11 construct: purchased Reaction Biology Corporation

[12] = target: T12, panel of 374 wild-type kinases (Homo sapiens, UniProt O75914); conditions: read-out: % Enzyme Activity (relative to DMSO controls), kinase PAK3
T12 construct: purchased Reaction Biology Corporation

[13] = target: T13, panel of 374 wild-type kinases (Homo sapiens, UniProt Q52WX2); conditions: read-out: % Enzyme Activity (relative to DMSO controls), kinase SBK1
T13 construct: purchased Reaction Biology Corporation

[14] = target: T14, panel of 374 wild-type kinases (Homo sapiens, UniProt Q13177); conditions: read-out: % Enzyme Activity (relative to DMSO controls), kinase PAK2
T14 construct: purchased Reaction Biology Corporation

[15] = target: T15, panel of 374 wild-type kinases (Homo sapiens, UniProt Q04759); conditions: read-out: % Enzyme Activity (relative to DMSO controls), kinase PKCtheta
T15 construct: purchased Reaction Biology Corporation
T15 sequence (Q04759 whole entry): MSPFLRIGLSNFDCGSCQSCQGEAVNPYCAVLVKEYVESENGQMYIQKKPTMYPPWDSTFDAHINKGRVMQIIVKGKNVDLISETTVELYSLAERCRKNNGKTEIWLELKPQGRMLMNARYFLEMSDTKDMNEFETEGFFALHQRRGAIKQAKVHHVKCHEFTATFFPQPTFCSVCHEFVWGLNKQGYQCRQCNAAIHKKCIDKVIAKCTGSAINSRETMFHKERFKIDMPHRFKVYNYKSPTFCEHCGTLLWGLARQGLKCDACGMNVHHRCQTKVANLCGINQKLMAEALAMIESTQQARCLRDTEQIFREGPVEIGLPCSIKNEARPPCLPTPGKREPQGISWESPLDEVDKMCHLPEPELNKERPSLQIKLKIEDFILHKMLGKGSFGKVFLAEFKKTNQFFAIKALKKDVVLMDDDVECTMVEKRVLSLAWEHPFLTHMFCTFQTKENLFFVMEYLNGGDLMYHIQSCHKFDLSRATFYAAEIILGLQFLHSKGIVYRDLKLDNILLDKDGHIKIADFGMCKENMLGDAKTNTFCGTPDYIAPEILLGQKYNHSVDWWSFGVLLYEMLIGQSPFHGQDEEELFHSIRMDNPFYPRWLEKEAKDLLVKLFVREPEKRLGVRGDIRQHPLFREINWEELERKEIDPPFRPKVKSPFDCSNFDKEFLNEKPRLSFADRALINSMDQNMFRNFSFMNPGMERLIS

T2 sequence (Q07912 whole entry): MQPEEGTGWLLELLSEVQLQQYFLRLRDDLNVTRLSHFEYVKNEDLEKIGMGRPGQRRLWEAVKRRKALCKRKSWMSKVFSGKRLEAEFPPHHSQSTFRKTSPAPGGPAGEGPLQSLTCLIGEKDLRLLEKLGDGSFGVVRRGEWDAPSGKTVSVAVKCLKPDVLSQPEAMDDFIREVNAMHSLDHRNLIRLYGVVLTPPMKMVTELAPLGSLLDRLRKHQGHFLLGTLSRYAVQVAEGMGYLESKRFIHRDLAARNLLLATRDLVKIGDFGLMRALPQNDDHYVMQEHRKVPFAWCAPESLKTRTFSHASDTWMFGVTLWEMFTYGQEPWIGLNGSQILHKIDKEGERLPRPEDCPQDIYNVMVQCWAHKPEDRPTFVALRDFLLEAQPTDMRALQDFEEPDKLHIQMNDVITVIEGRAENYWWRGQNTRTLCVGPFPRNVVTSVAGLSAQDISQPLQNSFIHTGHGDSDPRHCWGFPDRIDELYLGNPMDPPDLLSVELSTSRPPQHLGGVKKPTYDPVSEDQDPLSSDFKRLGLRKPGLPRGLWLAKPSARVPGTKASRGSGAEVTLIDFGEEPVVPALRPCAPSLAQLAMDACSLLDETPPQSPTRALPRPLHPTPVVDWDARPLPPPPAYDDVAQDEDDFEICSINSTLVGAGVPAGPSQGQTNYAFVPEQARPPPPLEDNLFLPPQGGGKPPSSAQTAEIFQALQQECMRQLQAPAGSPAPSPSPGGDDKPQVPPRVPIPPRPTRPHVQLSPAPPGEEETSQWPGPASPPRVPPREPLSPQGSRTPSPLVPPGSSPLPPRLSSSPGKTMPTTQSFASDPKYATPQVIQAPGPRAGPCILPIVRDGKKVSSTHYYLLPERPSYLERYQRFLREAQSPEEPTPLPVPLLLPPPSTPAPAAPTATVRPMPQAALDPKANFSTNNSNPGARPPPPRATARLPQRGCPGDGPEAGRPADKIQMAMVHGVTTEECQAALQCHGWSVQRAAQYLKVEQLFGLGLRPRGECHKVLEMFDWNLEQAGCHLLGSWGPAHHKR
T11 sequence (Q13555 whole entry): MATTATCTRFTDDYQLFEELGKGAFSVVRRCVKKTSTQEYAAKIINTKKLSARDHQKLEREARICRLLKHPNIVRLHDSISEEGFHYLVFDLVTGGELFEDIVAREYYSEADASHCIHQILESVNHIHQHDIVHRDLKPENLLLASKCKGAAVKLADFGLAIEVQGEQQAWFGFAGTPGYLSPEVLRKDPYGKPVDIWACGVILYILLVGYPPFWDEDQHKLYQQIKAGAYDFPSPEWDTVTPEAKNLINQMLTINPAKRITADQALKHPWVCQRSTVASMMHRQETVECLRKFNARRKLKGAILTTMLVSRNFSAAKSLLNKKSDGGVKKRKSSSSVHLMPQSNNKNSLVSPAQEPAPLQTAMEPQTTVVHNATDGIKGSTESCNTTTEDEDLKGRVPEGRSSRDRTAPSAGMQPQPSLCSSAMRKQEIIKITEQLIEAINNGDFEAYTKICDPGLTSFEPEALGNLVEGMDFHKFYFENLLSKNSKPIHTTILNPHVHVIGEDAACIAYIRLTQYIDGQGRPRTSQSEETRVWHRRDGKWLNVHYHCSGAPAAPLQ
T13 sequence (Q52WX2 whole entry): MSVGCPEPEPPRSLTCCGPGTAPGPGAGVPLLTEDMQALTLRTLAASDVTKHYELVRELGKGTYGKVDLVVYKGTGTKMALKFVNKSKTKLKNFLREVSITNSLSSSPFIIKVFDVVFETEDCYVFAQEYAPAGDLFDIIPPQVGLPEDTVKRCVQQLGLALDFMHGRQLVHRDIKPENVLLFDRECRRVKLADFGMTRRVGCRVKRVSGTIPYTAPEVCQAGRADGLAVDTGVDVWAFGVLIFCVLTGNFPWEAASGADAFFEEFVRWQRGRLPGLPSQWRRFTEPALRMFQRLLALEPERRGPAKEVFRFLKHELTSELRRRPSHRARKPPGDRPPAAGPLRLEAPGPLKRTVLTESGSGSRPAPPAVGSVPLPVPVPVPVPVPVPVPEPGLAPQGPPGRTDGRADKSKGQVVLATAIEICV
T12 sequence (O75914 whole entry): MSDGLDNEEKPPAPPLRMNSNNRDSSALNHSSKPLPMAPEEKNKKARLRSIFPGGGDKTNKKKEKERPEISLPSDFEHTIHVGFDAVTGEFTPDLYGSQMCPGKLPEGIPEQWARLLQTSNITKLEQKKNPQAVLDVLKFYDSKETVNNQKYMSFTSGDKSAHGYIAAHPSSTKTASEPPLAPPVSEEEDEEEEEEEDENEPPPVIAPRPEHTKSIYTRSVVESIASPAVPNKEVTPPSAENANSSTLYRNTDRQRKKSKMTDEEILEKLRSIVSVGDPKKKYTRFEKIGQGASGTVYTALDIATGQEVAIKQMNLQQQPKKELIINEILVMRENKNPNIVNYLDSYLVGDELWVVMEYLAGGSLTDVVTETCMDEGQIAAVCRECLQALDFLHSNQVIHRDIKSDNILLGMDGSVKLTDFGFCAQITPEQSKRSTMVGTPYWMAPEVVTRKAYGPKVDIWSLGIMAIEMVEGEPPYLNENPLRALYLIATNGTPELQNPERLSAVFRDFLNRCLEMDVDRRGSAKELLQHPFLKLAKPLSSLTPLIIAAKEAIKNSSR
T14 sequence (Q13177 whole entry): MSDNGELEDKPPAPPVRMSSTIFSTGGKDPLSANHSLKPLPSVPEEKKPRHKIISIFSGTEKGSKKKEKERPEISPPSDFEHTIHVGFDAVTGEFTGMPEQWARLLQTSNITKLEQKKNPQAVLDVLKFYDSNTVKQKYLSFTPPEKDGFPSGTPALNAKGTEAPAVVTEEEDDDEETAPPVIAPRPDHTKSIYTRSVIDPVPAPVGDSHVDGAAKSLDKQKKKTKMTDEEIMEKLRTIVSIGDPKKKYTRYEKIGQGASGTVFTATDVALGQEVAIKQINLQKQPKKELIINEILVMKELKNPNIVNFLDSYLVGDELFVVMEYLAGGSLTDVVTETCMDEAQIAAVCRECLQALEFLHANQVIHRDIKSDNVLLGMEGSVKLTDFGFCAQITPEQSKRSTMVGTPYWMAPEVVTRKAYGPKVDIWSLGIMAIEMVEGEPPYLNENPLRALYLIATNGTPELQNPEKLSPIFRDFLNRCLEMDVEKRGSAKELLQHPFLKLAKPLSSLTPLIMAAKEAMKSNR
T8 sequence (Q9BWU1 whole entry): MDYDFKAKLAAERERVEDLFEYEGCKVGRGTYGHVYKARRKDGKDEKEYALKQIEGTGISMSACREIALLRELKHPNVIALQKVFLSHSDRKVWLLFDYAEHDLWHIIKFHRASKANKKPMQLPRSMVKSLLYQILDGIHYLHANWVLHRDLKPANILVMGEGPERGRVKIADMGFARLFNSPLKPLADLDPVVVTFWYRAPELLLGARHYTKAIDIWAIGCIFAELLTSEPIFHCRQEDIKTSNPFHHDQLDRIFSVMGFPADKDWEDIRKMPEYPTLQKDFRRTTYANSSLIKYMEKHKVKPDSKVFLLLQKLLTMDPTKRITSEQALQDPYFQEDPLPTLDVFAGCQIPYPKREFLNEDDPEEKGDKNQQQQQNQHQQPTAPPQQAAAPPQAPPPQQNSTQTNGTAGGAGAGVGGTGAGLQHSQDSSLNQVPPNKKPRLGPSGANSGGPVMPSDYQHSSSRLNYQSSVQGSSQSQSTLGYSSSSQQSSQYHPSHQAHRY
T10 sequence (Q9UQM7 whole entry): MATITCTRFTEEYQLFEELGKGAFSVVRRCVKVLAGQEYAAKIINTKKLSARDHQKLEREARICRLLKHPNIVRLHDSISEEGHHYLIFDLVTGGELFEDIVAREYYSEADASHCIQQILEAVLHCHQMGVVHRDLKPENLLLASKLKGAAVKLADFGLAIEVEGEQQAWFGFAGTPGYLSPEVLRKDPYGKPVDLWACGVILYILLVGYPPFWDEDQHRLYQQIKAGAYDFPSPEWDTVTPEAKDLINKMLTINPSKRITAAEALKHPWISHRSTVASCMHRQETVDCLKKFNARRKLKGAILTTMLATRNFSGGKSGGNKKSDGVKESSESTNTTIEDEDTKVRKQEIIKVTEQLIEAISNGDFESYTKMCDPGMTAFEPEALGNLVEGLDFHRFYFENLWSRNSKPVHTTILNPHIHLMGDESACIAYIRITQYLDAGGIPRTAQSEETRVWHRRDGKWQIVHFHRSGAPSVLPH

SMILES	remaining activity at 5 µM [1] [%]	remaining activity at 5 µM [2] [%]	remaining activity at 5 µM [3] [%]	remaining activity at 5 µM [4] [%]	remaining activity at 5 µM [5] [%]	remaining activity at 5 µM [6] [%]	remaining activity at 5 µM [7] [%]	remaining activity at 5 µM [8] [%]	remaining activity at 5 µM [9] [%]	remaining activity at 5 µM [10] [%]	remaining activity at 5 µM [11] [%]	remaining activity at 5 µM [12] [%]	remaining activity at 5 µM [13] [%]	remaining activity at 5 µM [14] [%]	remaining activity at 5 µM [15] [%]	further results
O=C(Nc1cnn(-c2csc(C(=O)NC3COC3)c2)c1)Nc1ccccc1Cl [Compound 17, 4-(4-(3-(2-chlorophenyl)ureido)-1H-pyrazol-1-yl)-N-(oxetan-3-yl)thiophene-2-carboxamide]	96	85.6	99.2	97.1	122	92.1	89.9	105	96	100	96.4	97.4	99.1	90.1	114	
O=C(Nc1cnn(-c2csc(C(=O)NC3COC3)c2)c1)Nc1c(F)cccc1Cl [Compound 25, 4-(4-(3-(2-chloro-6-fluorophenyl)ureido)-1H-pyrazol-1-yl)-N-(oxetan-3-yl)thiophene-2-carboxamide]	75.9	94.6	97.5	99.8	98.4	92.9	83.5	96.2	104	99.4	90.1	64.2	97.7	95.3	94.7	
Cc1sc(C(=O)NC2COC2)cc1-n1cc(NC(=O)Nc2c(F)cccc2Cl)cn1 [Compound 27, 4-(4-(3-(2-chloro-6-fluorophenyl)ureido)-1H-pyrazol-1-yl)-5-methyl-N-(oxetan-3-yl)thiophene-2-carboxamide]																remaining activity at 10 µM ([1]; 10 uM): 71.9%; remaining activity at 10 µM ([2]; 10 uM): 106%; remaining activity at 10 µM ([3]; 10 uM): 98%; remaining activity at 10 µM ([4]; 10 uM): 93.6%; remaining activity at 10 µM ([5]; 10 uM): 89.2%; remaining activity at 10 µM ([6]; 10 uM): 103%; remaining activity at 10 µM ([7]; 10 uM): 78.7%; remaining activity at 10 µM ([8]; 10 uM): 98.1%; remaining activity at 10 µM ([9]; 10 uM): 94.7%; remaining activity at 10 µM ([10]; 10 uM): 99.7%; remaining activity at 10 µM ([11]; 10 uM): 102%; remaining activity at 10 µM ([12]; 10 uM): 114%; remaining activity at 10 µM ([13]; 10 uM): 87.5%; remaining activity at 10 µM ([14]; 10 uM): 106%; remaining activity at 10 µM ([15]; 10 uM): 96.9%
